Measurements taken from patent US10829478B2, “5-[3-[piperazin-1-yl]-3-oxo-propyl]-imidazolidine-2,4-dione derivatives as ADAMTS 4 and 5 inhibitors for treating e.g. osteoarthritis” (Galapagos NV, priority 2016, dated 2020).
Like-named read-outs stand apart in the source and are kept apart here.

Columns and labels:
human ADAMTS-5 = human ADAMTS-5 (Homo sapiens (Human), UniProt Q9UNA0); experiment: hADAMTS-5 TBIS-1 cleavage assay, Protocol 3; format: biochemical; settings: 90 min at 37° C., read-out: hADAMTS-5 potency IC50
human ADAMTS-5, sequence (Q9UNA0 262-930): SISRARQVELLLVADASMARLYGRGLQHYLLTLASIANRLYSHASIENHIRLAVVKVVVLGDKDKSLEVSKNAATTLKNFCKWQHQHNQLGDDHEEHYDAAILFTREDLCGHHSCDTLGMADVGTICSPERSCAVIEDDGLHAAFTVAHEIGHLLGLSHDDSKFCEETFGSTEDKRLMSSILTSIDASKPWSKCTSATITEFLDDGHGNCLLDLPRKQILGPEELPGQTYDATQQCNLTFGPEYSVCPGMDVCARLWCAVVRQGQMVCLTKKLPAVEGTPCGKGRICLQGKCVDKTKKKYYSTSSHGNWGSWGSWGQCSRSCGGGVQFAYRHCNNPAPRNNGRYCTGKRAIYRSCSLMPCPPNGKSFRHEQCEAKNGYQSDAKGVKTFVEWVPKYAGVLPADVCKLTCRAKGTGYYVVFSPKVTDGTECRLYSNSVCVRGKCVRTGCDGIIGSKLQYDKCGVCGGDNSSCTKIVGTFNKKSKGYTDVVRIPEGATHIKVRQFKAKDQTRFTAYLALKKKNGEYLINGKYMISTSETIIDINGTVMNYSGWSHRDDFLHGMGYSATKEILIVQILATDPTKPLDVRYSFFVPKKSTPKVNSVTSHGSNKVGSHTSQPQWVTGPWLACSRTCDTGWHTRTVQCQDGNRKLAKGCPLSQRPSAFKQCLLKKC
Protocol: The reaction is initiated by adding to the assay plate TBIS-1 (10 μL, 4.5 μM, Anaspec) in the same buffer.
Finally, the fluorescence is read on the Envision (Perkin Elmer) after an incubation of 90 min at 37° C. (Excitation 485 nm, emission 530).

human TACE = human TACE (Homo sapiens (Human), UniProt P78536); experiment: biochemical
human TACE, sequence (P78536 215-671): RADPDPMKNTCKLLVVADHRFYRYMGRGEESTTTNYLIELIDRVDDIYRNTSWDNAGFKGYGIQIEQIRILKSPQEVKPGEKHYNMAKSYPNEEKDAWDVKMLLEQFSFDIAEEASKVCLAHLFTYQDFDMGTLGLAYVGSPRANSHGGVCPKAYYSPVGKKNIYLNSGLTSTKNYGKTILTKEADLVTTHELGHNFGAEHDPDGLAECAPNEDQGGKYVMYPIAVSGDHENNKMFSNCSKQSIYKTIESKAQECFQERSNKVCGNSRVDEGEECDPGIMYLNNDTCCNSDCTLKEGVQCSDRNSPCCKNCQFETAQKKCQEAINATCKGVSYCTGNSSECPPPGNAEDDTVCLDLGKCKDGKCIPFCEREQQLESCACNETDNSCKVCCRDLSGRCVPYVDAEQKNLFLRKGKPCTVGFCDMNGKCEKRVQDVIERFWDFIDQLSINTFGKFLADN
Protocol: Finally, the fluorescence is read on the Envision (Perkin Elmer) after an incubation of 75 min at room temperature (Excitation 485 nm, Emission 530).

human ADAMTS6 = human ADAMTS6 (Homo sapiens (Human), UniProt Q9UKP5); experiment: hADAMTS-6 fluorescent based protease assay (520 MMP FRET substrate XII); format: biochemical; settings: 37° C. for 2 h; read-out: hADAMTS-6 potency IC50
human ADAMTS6, sequence (Q9UKP5 other isoform, or with tags, fused parts or gaps): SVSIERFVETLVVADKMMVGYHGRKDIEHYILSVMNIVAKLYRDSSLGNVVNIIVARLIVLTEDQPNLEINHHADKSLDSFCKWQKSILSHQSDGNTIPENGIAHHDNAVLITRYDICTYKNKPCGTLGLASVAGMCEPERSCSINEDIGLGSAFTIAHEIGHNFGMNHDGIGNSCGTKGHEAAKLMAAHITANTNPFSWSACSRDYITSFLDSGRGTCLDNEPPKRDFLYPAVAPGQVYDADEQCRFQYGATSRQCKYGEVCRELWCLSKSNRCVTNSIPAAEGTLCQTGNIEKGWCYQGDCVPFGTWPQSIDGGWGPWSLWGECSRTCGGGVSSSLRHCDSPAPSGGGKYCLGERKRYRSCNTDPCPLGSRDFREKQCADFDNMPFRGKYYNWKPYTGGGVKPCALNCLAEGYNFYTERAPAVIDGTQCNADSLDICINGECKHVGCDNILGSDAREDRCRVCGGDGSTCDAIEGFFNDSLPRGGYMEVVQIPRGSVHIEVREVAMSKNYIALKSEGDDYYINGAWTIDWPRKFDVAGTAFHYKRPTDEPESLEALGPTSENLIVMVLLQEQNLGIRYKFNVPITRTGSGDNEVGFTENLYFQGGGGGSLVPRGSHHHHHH
Protocol: The IC50 value for test compounds can be determined in a fluorescent based protease assay.
The substrate contains sequence Arg-Pro-Lys-Pro-Tyr-Ala-Nva-Trp-Met-Lys (SEQ ID NO: 7) with attached a fluorescent probe and a quencher. Without ADAMTS6, the emission of the probe is quenched. If the substrate is cleaved by ADAMTS6, the emission of the probe is not quenched anymore. Inhibition of ADAMTS6 activity, will result in a decrease of the signal.
To perform the assay, 4 μL of a dilution series of compound in water, starting from 20 μM highest concentration, ⅕ dilution, is added to the wells. 2 ng ADAMTS6 enzyme is diluted in 25 mM Tris pH8.0, 0.05% CHAPS, 2.5 mM CaCl2 in a total volume of 26 μL (final concentration 0.73 nM). The reaction is started by addition of 10 μL of 1 μM 520 MMP FRET Substrate XII (final concentration, diluted in same buffer as described above) and the mixture is incubated at 37° C. for 2 h. […] After this incubation, cleavage of the substrate is measured using the Envision (Perkin Elmer, exc485/em530).

human ADAMTS4 = human ADAMTS4 (Homo sapiens (Human), UniProt O75173); experiment: hADAMTS-4 TBIS-1 cleavage assay, Protocol 2; format: biochemical
human ADAMTS4, sequence (O75173 213-837): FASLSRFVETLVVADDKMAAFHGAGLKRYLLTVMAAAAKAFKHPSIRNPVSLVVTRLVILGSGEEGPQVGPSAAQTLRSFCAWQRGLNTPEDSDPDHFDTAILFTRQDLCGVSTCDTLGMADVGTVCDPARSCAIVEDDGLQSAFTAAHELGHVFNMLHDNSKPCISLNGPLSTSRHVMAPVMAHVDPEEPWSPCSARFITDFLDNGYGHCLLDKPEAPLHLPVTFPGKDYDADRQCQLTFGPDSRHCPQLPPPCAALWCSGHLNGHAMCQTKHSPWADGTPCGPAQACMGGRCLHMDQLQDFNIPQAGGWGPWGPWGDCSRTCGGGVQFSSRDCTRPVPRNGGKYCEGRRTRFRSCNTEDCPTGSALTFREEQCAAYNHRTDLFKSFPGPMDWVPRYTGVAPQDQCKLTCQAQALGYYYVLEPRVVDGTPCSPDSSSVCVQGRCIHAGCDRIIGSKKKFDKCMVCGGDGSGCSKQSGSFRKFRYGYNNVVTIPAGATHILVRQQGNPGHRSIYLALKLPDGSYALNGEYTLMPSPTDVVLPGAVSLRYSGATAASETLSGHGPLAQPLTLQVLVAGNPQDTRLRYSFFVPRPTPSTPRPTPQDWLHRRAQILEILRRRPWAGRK

human MMP13 = human MMP13 (Homo sapiens (Human), UniProt P45452); experiment: hMMP13 assay, Protocol 1 (390 MMP FRET Substrate I, Chemicon enzyme); format: biochemical; settings: Protocol 1, human MMP13 (Chemicon), read-out: hMMP-13 potency IC50
Protocol: Human MMP13 is preactivated by incubated the enzyme in the same buffer complemented with 1 mM freshly prepared p-Aminophenylmercuric acetate (AMPA) for 1 h at 37° C.

[1] = Protocol 2, 180 min at 37° C., read-out: ADAMTS4 potency IC50

| SMILES | IC50 (human ADAMTS-5) [nM] | IC50 (human TACE) [nM] | IC50 (human ADAMTS6) [nM] | IC50 (human ADAMTS4) [nM] | IC50 (human MMP13) [nM] | IC50 (human ADAMTS4; [1]) [nM] |
| --- | --- | --- | --- | --- | --- | --- |
| COCC1(CC(C)C(=O)N2CCN(c3cc(F)c(F)c(OC)c3)[C@@H](C)C2)NC(=O)NC1=O (mixture of isomers) [Cpd 46, 5-[3-[(3S)-4-(3,4-difluoro-5-methoxy-phenyl)-3-methyl-piperazin-1-yl]-2-methyl-3-oxo-propyl]-5-(methoxymethyl)imidazolidine-2,4-dione] | 25 to 50 | > 100 | 0.001 to 25 | 25 to 50 | > 100 | – |
| COc1cc(N2CCN(C(=O)[C@@H](C)C[C@@]3(c4ccccn4)NC(=O)NC3=O)C[C@@H]2C)cc(F)c1F (stereo in doubt) [Cpd 49, 5-[3-[(3 S)-4-(3,4-difluoro-5-methoxy-phenyl)-3-methyl-piperazin-1-yl]-2-methyl-3-oxo-propyl]-5-(2-pyridyl)imidazolidine-2,4-dione] | 25 to 50 | > 100 | 0.001 to 25 | 50 to 100 | – | – |
| COc1cc(F)cc(N2CCN(C(=O)CC[C@@]3(C)NC(=O)NC3=O)CC2)c1 [Cpd 19, (R)-5-[3-[4-(3-fluoro-5-methoxy-phenyl)piperazin-1-yl]-3-oxo-propyl]-5-methyl-imidazolidine-2,4-dione] | > 100 | > 100 | 50 to 100 | – | > 100 | > 100 |
| COc1cc(N2CCN(C(=O)CC[C@@]3(C)NC(=O)NC3=O)CC2)cc(F)c1F [Cpd 20, (R)-5-[3-[4-(3,4-difluoro-5-methoxy-phenyl)piperazin-1-yl]-3-oxo-propyl]-5-methyl-imidazolidine-2,4-dione] | > 100 | > 100 | 0.001 to 25 | – | > 100 | > 100 |
| COc1cc(N2CCN(C(=O)CCC3(C)NC(=O)NC3=O)C[C@@H]2C)cc(F)c1F (stereo partly drawn) [Cpd 22, 5-[3-[(3 S)-4-(3,4-difluoro-5-methoxy-phenyl)-3-methyl-piperazin-1-yl]-3-oxo-propyl]-5-methyl-imidazolidine-2,4-dione] | > 100 | > 100 | 0.001 to 25 | – | > 100 | > 100 |
| COc1cncc(N2CCN(C(=O)CCC3(C4CC4)NC(=O)NC3=O)C[C@@H]2C)c1 (stereo partly drawn) [Cpd 60, 5-cyclopropyl-5-[3-[(3S)-4-(5-methoxy-3-pyridyl)-3-methyl-piperazin-1-yl]-3-oxo-propyl]imidazolidine-2,4-dione] | > 100 | > 100 | > 100 | – | – | > 100 |
| COc1cc(N2CCN(C(=O)CC[C@@]3(C)NC(=O)NC3=O)C[C@@H]2C)c(C)cc1F [Cpd 66, (5R)-5-[3-[(3S)-4-(4-fluoro-5-methoxy-2-methyl-phenyl)-3-methyl-piperazin-1-yl]-3-oxo-propyl]-5-methyl-imidazolidine-2,4-dione] | > 100 | > 100 | 50 to 100 | – | – | – |
| COc1c(Cl)cccc1N1CCN(C(=O)CC[C@@]2(C)NC(=O)NC2=O)C[C@@H]1C [Cpd 69, (5R)-5-[3-[(3 S)-4-(3-chloro-2-methoxy-phenyl)-3-methyl-piperazin-1-yl]-3-oxo-propyl]-5-methyl-imidazolidine-2,4-dione] | > 100 | > 100 | > 100 | – | – | – |
| CCc1cccc(N2CCN(C(=O)CC[C@@]3(C)NC(=O)NC3=O)CC2)c1 [Cpd 70, (5R)-5-[3-[4-(3-ethylphenyl)piperazin-1-yl]-3-oxo-propyl]-5-methyl-imidazolidine-2,4-dione] | > 100 | > 100 | > 100 | – | – | – |
| COc1cc(Cl)ccc1N1CCN(C(=O)CC[C@@]2(C)NC(=O)NC2=O)CC1 [Cpd 73, (5R)-5-[3-[4-(4-chloro-2-methoxy-phenyl)piperazin-1-yl]-3-oxo-propyl]-5-methyl-imidazolidine-2,4-dione] | > 100 | > 100 | > 100 | – | – | – |
| COc1cc(Cl)ccc1N1CCN(C(=O)CC[C@@]2(C)NC(=O)NC2=O)C[C@@H]1C [Cpd 76, (5R)-5-[3-[(3 S)-4-(4-chloro-2-methoxy-phenyl)-3-methyl-piperazin-1-yl]-3-oxo-propyl]-5-methyl-imidazolidine-2,4-dione] | > 100 | > 100 | > 100 | – | – | – |
| COc1cc(F)ccc1N1CCN(C(=O)CC[C@@]2(C)NC(=O)NC2=O)CC1 [Cpd 78, (5R)-5-[3-[4-(4-fluoro-2-methoxy-phenyl)piperazin-1-yl]-3-oxo-propyl]-5-methyl-imidazolidine-2,4-dione] | > 100 | > 100 | > 100 | – | – | – |
| COc1ccc(Cl)cc1N1CCN(C(=O)CC[C@@]2(C)NC(=O)NC2=O)C[C@@H]1C [Cpd 91, (5R)-5-[3-[(3 S)-4-(5-chloro-2-methoxy-phenyl)-3-methyl-piperazin-1-yl]-3-oxo-propyl]-5-methyl-imidazolidine-2,4-dione] | > 100 | > 100 | > 100 | – | – | – |
| COc1cc(Cl)c(Cl)cc1N1CCN(C(=O)CC[C@@]2(C)NC(=O)NC2=O)CC1 [Cpd 94, (5R)-5-[3-[4-(4,5-dichloro-2-methoxy-phenyl)piperazin-1-yl]-3-oxo-propyl]-5-methyl-imidazolidine-2,4-dione] | > 100 | > 100 | 0.001 to 25 | – | – | – |
| COc1cc(Cl)c(C)cc1N1CCN(C(=O)CC[C@@]2(C)NC(=O)NC2=O)C[C@@H]1C [Cpd 95, (5R)-5-[3-[(3S)-4-(4-chloro-2-methoxy-5-methyl-phenyl)-3-methyl-piperazin-1-yl]-3-oxo-propyl]-5-methyl-imidazolidine-2,4-dione] | > 100 | > 100 | 0.001 to 25 | – | – | – |
| COc1cc(N2CCN(C(=O)CC[C@H]3NC(=O)NC3=O)C[C@H]2C)cc(F)c1F [Cpd 127, (5R)-5-[3-[(3R)-4-(3,4-difluoro-5-methoxy-phenyl)-3-methyl-piperazin-1-yl]-3-oxo-propyl]imidazolidine-2,4-dione] | > 100 | – | > 100 | – | – | – |
| COc1ccc(C)c(N2CCN(C(=O)CC[C@H]3NC(=O)NC3=O)CC2)c1 [Cpd 136, (5R)-5-[3-[4-(5-methoxy-2-methyl-phenyl)piperazin-1-yl]-3-oxo-propyl]imidazolidine-2,4-dione] | > 100 | – | > 100 | – | – | – |
| COc1cccc(N2CCN(C(=O)CC[C@H]3NC(=O)NC3=O)CC2)c1C [Cpd 137, (5R)-5-[3-[4-(3-methoxy-2-methyl-phenyl)piperazin-1-yl]-3-oxo-propyl]imidazolidine-2,4-dione] | > 100 | – | > 100 | – | – | – |
| COc1ccc(C)c(N2CCN(C(=O)CC[C@H]3NC(=O)NC3=O)C[C@@H]2C)c1 [Cpd 140, (5R)-5-[3-[(3 S)-4-(5-methoxy-2-methyl-phenyl)-3-methyl-piperazin-1-yl]-3-oxo-propyl]imidazolidine-2,4-dione] | > 100 | – | > 100 | – | – | – |
| CCOc1cc(N2CCN(C(=O)CC[C@H]3NC(=O)NC3=O)CC2)cc(OC)c1Cl [Cpd 149, (5R)-5-[3-[4-(4-chloro-3-ethoxy-5-methoxy-phenyl)piperazin-1-yl]-3-oxo-propyl]imidazolidine-2,4-dione] | > 100 | > 100 | 50 to 100 | – | – | – |
| COc1cc(N2CCN(C(=O)CC[C@H]3NC(=O)NC3=O)CC2)cc(OC)c1F [Cpd 151, (5R)-5-[3-[4-(4-fluoro-3,5-dimethoxy-phenyl)piperazin-1-yl]-3-oxo-propyl]imidazolidine-2,4-dione] | > 100 | > 100 | 25 to 50 | – | – | – |
